Where a name gives a salt, the structure may show the parent alone.
Key:
NRK1 = experiment: NAD+ levels in primary hepatocytes from control or NRK1 knockout mice; conditions: 1 hour of treatment
[1] = Stability in FBS supplemented media; format: in vitro ADME
Excerpt: (§1) NR degradation to NAM has been proposed as a limitation for its pharmacological efficacy. To evaluate whether NRH was also susceptible to degradation to NAM, we spiked NRH or NR in isolated mouse plasma. […] We also tested the stability of NRH in other matrixes.

[2] = tested on: NAD+ levels in liver, muscle and kidney; experiment: Tissue NAD+ levels after intraperitoneal injection of NR or NRH; format: in vivo, mice; conditions: IP 500 mg/kg, after 1 h
Protocol: (§2) The above results prompted us to test whether NRH could act as an effective NAD+ precursor in vivo. For this, we first intraperitoneally (IP) injected mice with either NR or NRH (500 mg/kg).

[3] = design: species or system mice; conditions: mouse, in vivo, po
Excerpt: (§3) Levels of NRH and other NAD-related metabolites in biological samples were obtained by using a cold liquid-liquid extraction using a mixture of methanol:water:chloroform in 5:3:5 (v/v), from which the polar phase was recovered for hydrophilic interaction ultra-high performance liquid chromatography mass spectrometry (UHPLC-MS) analysis. The UHPLC consisted of a binary pump, a cooled autosampler, and a column oven (DIONEX Ultimate 3000 UHPLC+ Focused, Thermo Scientific), connected to a triple quadrupole spectrometer (TSQ Vantage, Thermo Scientific) equipped with a heated electrospray ionisation (H-ESI) source. Of each sample, 2 μL were injected into the analytical column (2.1 mm×150 mm, 5 μm pore size, 200 Å HILICON iHILIC®-Fusion(P)), guarded by a pre-column (2.1 mm×20 mm, 200 Å HILICON iHILIC®-Fusion(P) Guard Kit) operating at 35° C. The mobile phase (10 mM ammonium acetate at pH 9, A, and acetonitrile, B) was pumped at 0.25 mL/min flow rate over a linear gradient of decreasing organic solvent (0.5-16 min, 90-25% B), followed by re-equilibration for a total run time of 30 min. The MS operated in positive mode at 3500 V with multiple reaction monitoring (MRM). The software Xcalibur v4.1.31.9 (Thermo Scientific) was used for instrument control, data acquisition and processing. Retention time and mass detection was confirmed by authentic standards.
Oral administration of NRH led to very similar results to those observed after IP administration. […] In contrast, NR levels were undetectable at 1 h after NR administration. As expected, NR treatment led to large increases in circulating NAM, which where ˜4-fold higher than those observed after NRH treatment.

[4] = Stability of NRH or NR spiked in isolated mouse plasma; format: in vitro ADME; conditions: 2 h of incubation
Excerpt: as §3, §1

[5] = Circulating NAM, NRH and NR after intraperitoneal injection; format: in vivo, mice; conditions: IP 500 mg/kg
Excerpt: as §3, §2

NAD+ levels in NRK1KO derived primary hepatocytes (NRK1): failed to increase NAD+ levels
degradation to NAM in FBS supplemented media [1]: as occurs with NR
circulating NAM after NR treatment relative to NRH treatment ([3]; C57BI/6NTac, 1 h): ~4 fold
administered compound in plasma [3]: undetectable
compound levels in isolated mouse plasma [4]: decayed in plasma
generation of NAM in isolated mouse plasma [4]: increase in NAM
NAM levels in circulation [5]: highly increased in circulation
SMILES: NC(=O)c1ccc[n+]([C@@H]2O[C@H](CO)[C@@H](O)[C@H]2O)c1 [NR, 1-b-D-ribofuranosyl-3-pyridinecarboxamide salt, reference compound]
NAD+ levels in kidney [2]: increased NAD+ levels
NAD+ levels in liver [2]: increased NAD+ levels
NAD+ levels in muscle [2]: increased NAD+ levels

From patent US20220296623A1, “REDUCED NICOTINAMIDERIBOSIDES FOR TREATING OR PREVENTING KIDNEY DISEASE” (SOCIETE DES PRODUITS NESTLE S.A., priority 2019, published 2022)
